Structures can show the parent of a compound that is named as a salt. Where two headings read alike, the source gives them in different places.
Assays:
Assay in all cases: AK assay 384-well format, Prestwick library screening
E. faecium = type: cell-based, Enterococcus faecium; settings: for fold induction at 50 µM: Enterococcus faecium, 3 h
[1] = test system: S. aureus strain USA300-0114; type: cell-based, Staphylococcus aureus; settings: for fold induction at 50 µM: Staphylococcus aureus, USA300, 3 h
K. pneumoniae = type: cell-based, Klebsiella pneumoniae; settings: for fold induction at 50 µM: Klebsiella pneumoniae, 3 h
[2] = test system: A. baumannii strain 98-37-09; type: cell-based, Acinetobacter baumannii; settings: for fold induction at 50 µM: Acinetobacter baumannii, 983709, 3 h
P. aeruginosa = type: cell-based, Pseudomonas aeruginosa; settings: for fold induction at 50 µM: Pseudomonas aeruginosa, 3 h
E. cloacae = type: cell-based, Enterobacter cloacae; settings: for fold induction at 50 µM: Enterobacter cloacae, 3 h
E. coli = type: cell-based, Escherichia coli; settings: for fold induction at 50 µM: Escherichia coli, 3 h
[3] = planktonic E. faecium, 50 μM final drug concentration, 384-well, cutoff for positive-scoring molecules 3-fold increase, read-out: AK-based Prestwick Library Screening Results: E. faecium (increase in extracellular AK activity)
[4] = planktonic S. aureus, 50 μM final drug concentration, 384-well, cutoff for positive-scoring molecules 3-fold increase, read-out: AK-based Prestwick Library Screening Results: S. aureus (increase in extracellular AK activity)
[5] = planktonic K. pneumoniae, 50 μM final drug concentration, 384-well, cutoff for positive-scoring molecules 3-fold increase, read-out: AK-based Prestwick Library Screening Results: K. pneumoniae (increase in extracellular AK activity)
[6] = planktonic A. baumannii, 50 μM final drug concentration, 384-well, cutoff for positive-scoring molecules 3-fold increase, read-out: AK-based Prestwick Library Screening Results: A. baumannii (increase in extracellular AK activity)
[7] = planktonic P. aeruginosa, 50 μM final drug concentration, 384-well, cutoff for positive-scoring molecules 3-fold increase, read-out: AK-based Prestwick Library Screening Results: P. aeruginosa (increase in extracellular AK activity)
[8] = planktonic E. cloacae, 50 μM final drug concentration, 384-well, cutoff for positive-scoring molecules 3-fold increase, read-out: AK-based Prestwick Library Screening Results: E. cloacae (increase in extracellular AK activity)
[9] = planktonic E. coli, 50 μM final drug concentration, 384-well, cutoff for positive-scoring molecules 3-fold increase, read-out: AK-based Prestwick Library Screening Results: E. coli (increase in extracellular AK activity)

Structure (SMILES): CSc1ccc2c(c1)N(CCC1CCCCN1C)c1ccccc1S2 (stereo not drawn) [Thioridazine hydrochloride]
- fold induction at 50 µM (E. faecium; [3]): 1
- fold induction at 50 µM [1, 4]: 1.3
- fold induction at 50 µM (K. pneumoniae; [5]): 1.3
- fold induction at 50 µM [2, 6]: 2.9
- fold induction at 50 µM (P. aeruginosa; [7]): 1.1
- fold induction at 50 µM (E. cloacae; [8]): 1.5
- fold induction at 50 µM (E. coli; [9]): 1.6

Structure (SMILES): O=C(O)CNC(=O)C(CS)Cc1ccccc1 (stereo not drawn) [Thiorphan]
- fold induction at 50 µM (E. faecium; read-out: AK-based Prestwick Library Screening Results, E. faecium (fold increase in extracellular AK activity)): 1
- fold induction at 50 µM ([1]; read-out: AK-based Prestwick Library Screening Results, S. aureus (fold increase in extracellular AK activity)): 1.3
- fold induction at 50 µM (K. pneumoniae; read-out: AK-based Prestwick Library Screening Results, K. pneumoniae (fold increase in extracellular AK activity)): 1.3
- fold induction at 50 µM ([2]; read-out: AK-based Prestwick Library Screening Results, A. baumannii (fold increase in extracellular AK activity)): 1.2
- fold induction at 50 µM (P. aeruginosa; read-out: AK-based Prestwick Library Screening Results, P. aeruginosa (fold increase in extracellular AK activity)): 1.2
- fold induction at 50 µM (E. cloacae; read-out: AK-based Prestwick Library Screening Results, E. cloacae (fold increase in extracellular AK activity)): 1.5
- fold induction at 50 µM (E. coli; read-out: AK-based Prestwick Library Screening Results, E. coli (fold increase in extracellular AK activity)): 1.2

Structure (SMILES): C=C(NC(=O)C(=C)NC(=O)c1csc(C2=N[C@@H]3c4csc(n4)[C@H]4NC(=O)c5csc(n5)[C@H]([C@](C)(O)[C@@H](C)O)NC(=O)[C@H]5CSC(=N5)/C(=C/C)NC(=O)[C@H]([C@@H](C)O)NC(=O)c5csc(n5)[C@]3(CC2)NC(=O)[C@H](C)NC(=O)C(=C)NC(=O)[C@H](C)NC(=O)[C@H]([C@@H](C)CC)N[C@@H]2C=Cc3c([C@H](C)O)cc(nc3[C@H]2O)C(=O)O[C@@H]4C)n1)C(N)=O [Thiostrepton]
- fold induction at 50 µM (E. faecium; 50 μM final drug concentration, planktonic, […], read-out: AK-based Prestwick Library Screening Results, E. faecium (fold increase in extracellular AK activity)): 1
- fold induction at 50 µM ([1]; 50 μM final drug concentration, planktonic, […], read-out: AK-based Prestwick Library Screening Results, S. aureus (fold increase in extracellular AK activity)): 0.4
- fold induction at 50 µM (K. pneumoniae; 50 μM final drug concentration, planktonic, […], read-out: AK-based Prestwick Library Screening Results, K. pneumoniae (fold increase in extracellular AK activity)): 1
- fold induction at 50 µM ([2]; 50 μM final drug concentration, planktonic, […], read-out: AK-based Prestwick Library Screening Results, A. baumannii (fold increase in extracellular AK activity)): 1.1
- fold induction at 50 µM (P. aeruginosa; 50 μM final drug concentration, planktonic, […], read-out: AK-based Prestwick Library Screening Results, P. aeruginosa (fold increase in extracellular AK activity)): 0.9
- fold induction at 50 µM (E. cloacae; 50 μM final drug concentration, planktonic, […], read-out: AK-based Prestwick Library Screening Results, E. cloacae (fold increase in extracellular AK activity)): 1.4
- fold induction at 50 µM (E. coli; 50 μM final drug concentration, planktonic, […], read-out: AK-based Prestwick Library Screening Results, E. coli (fold increase in extracellular AK activity)): 1.3

Structure (SMILES): N[C@@H](Cc1cc(I)c(Oc2cc(I)c(O)c(I)c2)c(I)c1)C(=O)O [Thyroxine (L)]
- AK-based Prestwick Library Screening Results: E. faecium (increase in extracellular AK activity) (E. faecium; planktonic E. faecium, 50 μM final drug concentration, 384-well, […]): 1.0
- AK-based Prestwick Library Screening Results: S. aureus (increase in extracellular AK activity) ([1]; planktonic S. aureus, 50 μM final drug concentration, 384-well, […]): 0.2
- AK-based Prestwick Library Screening Results: K. pneumoniae (increase in extracellular AK activity) (K. pneumoniae; planktonic K. pneumoniae, 50 μM final drug concentration, 384-well, […]): 0.4
- AK-based Prestwick Library Screening Results: A. baumannii (increase in extracellular AK activity) ([2]; planktonic A. baumannii, 50 μM final drug concentration, 384-well, […]): 0.4
- AK-based Prestwick Library Screening Results: P. aeruginosa (increase in extracellular AK activity) (P. aeruginosa; planktonic P. aeruginosa, 50 μM final drug concentration, 384-well, […]): 0.4
- AK-based Prestwick Library Screening Results: E. cloacae (increase in extracellular AK activity) (E. cloacae; planktonic E. cloacae, 50 μM final drug concentration, 384-well, […]): 0.3
- AK-based Prestwick Library Screening Results: E. coli (increase in extracellular AK activity) (E. coli; planktonic E. coli, 50 μM final drug concentration, 384-well, […]): 0.5

Structure (SMILES): c1ccc2[nH]c(-c3cscn3)nc2c1 [Tiabendazole]
- fold induction at 50 µM (E. faecium; 50 μM final drug concentration, planktonic, cutoff for positive 3-fold increase, read-out: AK-based Prestwick Library Screening Results, E. faecium (fold increase in extracellular AK activity)): 0.5
- fold induction at 50 µM ([1]; 50 μM final drug concentration, planktonic, cutoff for positive 3-fold increase, read-out: AK-based Prestwick Library Screening Results, S. aureus (fold increase in extracellular AK activity)): 0.6
- fold induction at 50 µM (K. pneumoniae; 50 μM final drug concentration, planktonic, cutoff for positive 3-fold increase, read-out: AK-based Prestwick Library Screening Results, K. pneumoniae (fold increase in extracellular AK activity)): 0.4
- fold induction at 50 µM ([2]; 50 μM final drug concentration, planktonic, cutoff for positive 3-fold increase, read-out: AK-based Prestwick Library Screening Results, A. baumannii (fold increase in extracellular AK activity)): 0.5
- fold induction at 50 µM (P. aeruginosa; 50 μM final drug concentration, planktonic, cutoff for positive 3-fold increase, read-out: AK-based Prestwick Library Screening Results, P. aeruginosa (fold increase in extracellular AK activity)): 0.6
- fold induction at 50 µM (E. cloacae; 50 μM final drug concentration, planktonic, cutoff for positive 3-fold increase, read-out: AK-based Prestwick Library Screening Results, E. cloacae (fold increase in extracellular AK activity)): 1.3
- fold induction at 50 µM (E. coli; 50 μM final drug concentration, planktonic, cutoff for positive 3-fold increase, read-out: AK-based Prestwick Library Screening Results, E. coli (fold increase in extracellular AK activity)): 0.6

Structure (SMILES): CCN(CC)CCNC(=O)c1cc(S(C)(=O)=O)ccc1OC [Tiapride hydrochloride]
- fold induction at 50 µM (E. faecium; [3]): 1.1
- fold induction at 50 µM [1, 4]: 1
- fold induction at 50 µM (K. pneumoniae; [5]): 0.9
- fold induction at 50 µM [2, 6]: 1.1
- fold induction at 50 µM (P. aeruginosa; [7]): 1.2
- fold induction at 50 µM (E. cloacae; [8]): 1.5
- fold induction at 50 µM (E. coli; [9]): 1.4

Structure (SMILES): CC(C(=O)O)c1ccc(C(=O)c2ccccc2)s1 (stereo not drawn) [Tiaprofenic acid]
- fold induction at 50 µM (E. faecium; planktonic E. faecium, 50 μM final drug concentration, cutoff for positive-scoring molecules 3-fold increase, read-out: AK-based Prestwick Library Screening Results, E. faecium (increase in extracellular AK activity)): 0.8
- fold induction at 50 µM ([1]; planktonic S. aureus, 50 μM final drug concentration, cutoff for positive-scoring molecules 3-fold increase, read-out: AK-based Prestwick Library Screening Results, S. aureus (increase in extracellular AK activity)): 0.5
- fold induction at 50 µM (K. pneumoniae; planktonic K. pneumoniae, 50 μM final drug concentration, cutoff for positive-scoring molecules 3-fold increase, read-out: AK-based Prestwick Library Screening Results, K. pneumoniae (increase in extracellular AK activity)): 0.5
- fold induction at 50 µM ([2]; planktonic A. baumannii, 50 μM final drug concentration, cutoff for positive-scoring molecules 3-fold increase, read-out: AK-based Prestwick Library Screening Results, A. baumannii (increase in extracellular AK activity)): 0.7
- fold induction at 50 µM (P. aeruginosa; planktonic P. aeruginosa, 50 μM final drug concentration, cutoff for positive-scoring molecules 3-fold increase, read-out: AK-based Prestwick Library Screening Results, P. aeruginosa (increase in extracellular AK activity)): 0.6
- fold induction at 50 µM (E. cloacae; planktonic E. cloacae, 50 μM final drug concentration, cutoff for positive-scoring molecules 3-fold increase, read-out: AK-based Prestwick Library Screening Results, E. cloacae (increase in extracellular AK activity)): 0.8
- fold induction at 50 µM (E. coli; planktonic E. coli, 50 μM final drug concentration, cutoff for positive-scoring molecules 3-fold increase, read-out: AK-based Prestwick Library Screening Results, E. coli (increase in extracellular AK activity)): 0.6

Structure (SMILES): CC1(C)S[C@@H]2[C@H](NC(=O)[C@H](C(=O)O)c3ccsc3)C(=O)N2[C@H]1C(=O)O [Ticarcillin sodium]
- fold induction at 50 µM (E. faecium; planktonic E. faecium, 50 μM final drug concentration, positive cutoff 3-fold increase, read-out: AK-based Prestwick library screening result, E. faecium (fold increase in extracellular AK activity)): 1.2
- fold induction at 50 µM ([1]; planktonic S. aureus, 50 μM final drug concentration, positive cutoff 3-fold increase, read-out: AK-based Prestwick library screening result, S. aureus (fold increase in extracellular AK activity)): 0.7
- fold induction at 50 µM (K. pneumoniae; planktonic K. pneumoniae, 50 μM final drug concentration, positive cutoff 3-fold increase, read-out: AK-based Prestwick library screening result, K. pneumoniae (fold increase in extracellular AK activity)): 0.7
- fold induction at 50 µM ([2]; planktonic A. baumannii, 50 μM final drug concentration, positive cutoff 3-fold increase, read-out: AK-based Prestwick library screening result, A. baumannii (fold increase in extracellular AK activity)): 2.6
- fold induction at 50 µM (P. aeruginosa; planktonic P. aeruginosa, 50 μM final drug concentration, positive cutoff 3-fold increase, read-out: AK-based Prestwick library screening result, P. aeruginosa (fold increase in extracellular AK activity)): 0.8
- fold induction at 50 µM (E. cloacae; planktonic E. cloacae, 50 μM final drug concentration, positive cutoff 3-fold increase, read-out: AK-based Prestwick library screening result, E. cloacae (fold increase in extracellular AK activity)): 1.4
- fold induction at 50 µM (E. coli; planktonic E. coli, 50 μM final drug concentration, positive cutoff 3-fold increase, read-out: AK-based Prestwick library screening result, E. coli (fold increase in extracellular AK activity)): 12.8

Structure (SMILES): CCNC1(c2cccs2)CCCCC1=O.Cl (stereo not drawn) [Tiletamine hydrochloride]
- AK-based Prestwick library screening result, E. faecium (fold increase in extracellular AK activity) (E. faecium; planktonic E. faecium, 50 μM final drug concentration, […]): 1.0
- AK-based Prestwick library screening result, S. aureus (fold increase in extracellular AK activity) ([1]; planktonic S. aureus, 50 μM final drug concentration, […]): 1.1
- AK-based Prestwick library screening result, K. pneumoniae (fold increase in extracellular AK activity) (K. pneumoniae; planktonic K. pneumoniae, 50 μM final drug concentration, […]): 1.1
- AK-based Prestwick library screening result, A. baumannii (fold increase in extracellular AK activity) ([2]; planktonic A. baumannii, 50 μM final drug concentration, […]): 1.6
- AK-based Prestwick library screening result, P. aeruginosa (fold increase in extracellular AK activity) (P. aeruginosa; planktonic P. aeruginosa, 50 μM final drug concentration, […]): 1.1
- AK-based Prestwick library screening result, E. cloacae (fold increase in extracellular AK activity) (E. cloacae; planktonic E. cloacae, 50 μM final drug concentration, […]): 1.4
- AK-based Prestwick library screening result, E. coli (fold increase in extracellular AK activity) (E. coli; planktonic E. coli, 50 μM final drug concentration, […]): 1.2

Source: patent US10004701B2, “Methods and compositions for treating infection” (UNIVERSITY OF ROCHESTER, priority 2012, dated 2018)
